Like-named read-outs stand apart in the source and are kept apart here.
Key:
SETD2(1434-1711) = target: T1, SETD2(1434-1711) (Homo sapiens, UniProt Q9BYW2); experiment: SETD2 (1434-1711) assay; assay type: biochemical; conditions: read-out: SETD2 (1434-1711)
T1 construct: SETD2 (1434-1711) Assay; catalogue N/A
T1 sequence (Q9BYW2 1434-1711): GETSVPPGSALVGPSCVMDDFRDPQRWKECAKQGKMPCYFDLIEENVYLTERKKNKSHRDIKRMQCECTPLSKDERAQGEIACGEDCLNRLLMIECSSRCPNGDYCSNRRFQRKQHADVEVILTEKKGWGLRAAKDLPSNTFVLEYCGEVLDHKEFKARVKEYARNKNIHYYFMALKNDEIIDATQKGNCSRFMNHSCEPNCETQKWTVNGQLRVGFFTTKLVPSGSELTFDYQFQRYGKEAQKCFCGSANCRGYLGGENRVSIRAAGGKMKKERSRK

H3K36me3 in A549 cells = experiment: In-Cell Western (ICW) assay of SETD2 inhibitors (A549 assay); assay type: cell-based, human; conditions: A549 cells, read-out: SETD2 A549
Summary of the method: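 A549 cells seeded at 4,000/well onto compound and incubated 3 days at 37° C. Methanol-fixed cells stained overnight at 4° C with anti-H3K36me3 (1:1000), then IRDye 800CW secondary with DRAQ5 DNA counterstain. Plates read by Licor imaging at 700 and 800 channels.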

Row | SMILES | IC50 (SETD2(1434-1711)) [nM] | IC50 (H3K36me3 in A549 cells) [nM] | IC50 (H3K36me3 in A549 cells; Homo sapiens) [nM]
1 | CC(=O)N1CC2CCC(C1)N2C1CCCC(NC(=O)c2cc3c(F)ccc(C)c3[nH]2)C1 (centres unmarked) [compound 952] | 40 | 400 | 
2 | CC(=O)N1CC2CCC(C1)N2[C@@H]1CCC[C@@H](NC(=O)c2cc3c(F)ccc(C)c3[nH]2)C1 [compound 953] | 3000 |  | > 2000
3 | Cc1ccc(F)c2cc(C(=O)NC3CCCC(c4nnc(CN(C)C)o4)C3)[nH]c12 (centres unmarked) [compound 955] | 200 | 800 | 
4 | Cc1ccc(F)c2cc(C(=O)NC3CCCC(N4CCNCC4)C3)[nH]c12 (centres unmarked) [compound 956] | 100 | 700 | 
5 | Cc1ccc(F)c2cc(C(=O)NC3CCCC(N4CCC(N5CCOC5=O)C4)C3)[nH]c12 (centres unmarked) [compound 958] | 40 | 200 | 
6 | Cc1ccc(F)c2cc(C(=O)NC3CCCC(N4CCC(N5CCOC5=O)C4)C3)[nH]c12 (centres unmarked) [compound 959] | 2300 | > 2000 | 
7 | CC(=O)N(C)C1CN(C2CCCC(NC(=O)c3cc4c(F)ccc(C)c4[nH]3)C2)C1 (centres unmarked) [compound 960] | 20 | > 2000 | 
8 | CC(=O)N1CC2CCC1CN2C1CCCC(NC(=O)c2cc3c(F)ccc(C)c3[nH]2)C1 (centres unmarked) [compound 961] | 30 | 400 | 
9 | CC(=O)N1CC2CCC1CN2C1CCCC(NC(=O)c2cc3c(F)ccc(C)c3[nH]2)C1 (centres unmarked) [compound 962] | 800 | > 2000 | 
10 | Cc1ccc(F)c2cc(C(=O)NC3CCCC(N4CCC5(CC4)COC(=O)N5)C3)[nH]c12 (centres unmarked) [compound 963] | 20 | 600 | 
11 | Cc1ccc(F)c2cc(C(=O)NC3CCCC(N4CCC5(CC4)COC(=O)N5)C3)[nH]c12 (centres unmarked) [compound 964] | 500 | > 2000 | 
12 | Cc1ccc(F)c2cc(C(=O)NC3CCCC(N4CCC5(CCC(=O)N5CC(F)(F)F)CC4)C3)[nH]c12 (centres unmarked) [compound 965] | 20 | 200 | 
13 | Cc1ccc(F)c2cc(C(=O)NC3CCCC(N4CCC5(CCC(=O)N5CC(F)(F)F)CC4)C3)[nH]c12 (centres unmarked) [compound 966] | 600 | > 2000 | 
14 | CC(=O)N1CCN(C2CCCC(NC(=O)c3cc4c(F)ccc(C)c4[nH]3)C2)CC1C (centres unmarked) [compound 967] | 20 | 100 | 
15 | CC(=O)N1CCN(C2CCCC(NC(=O)c3cc4c(F)ccc(C)c4[nH]3)C2)CC1C (centres unmarked) [compound 968] | 1900 | > 2000 | 
16 | Cc1ccc(F)c2cc(C(=O)NC3CCCC(N4CCC(N(C)C(=O)C(C)C)C4)C3)[nH]c12 (centres unmarked) [compound 969] | 4 | 100 | 
17 | Cc1ccc(F)c2cc(C(=O)NC3CCCC(N4CCC(N(C)C(=O)C(C)C)C4)C3)[nH]c12 (centres unmarked) [compound 970] | 5000 | > 2000 | 
18 | Cc1ccc(F)c2cc(C(=O)NC3CCCC(N4CCC(N(C)C(=O)C5CC5)C4)C3)[nH]c12 (centres unmarked) [compound 971] | 10 | 100 | 
19 | Cc1ccc(F)c2cc(C(=O)NC3CCCC(N4CCC(N(C)C(=O)C5CC5)C4)C3)[nH]c12 (centres unmarked) [compound 972] | 4900 | > 2000 | 
20 | Cc1ccc(F)c2cc(C(=O)NC3CCCC(N4CCN(C5CCOC5)C(=O)C4)C3)[nH]c12 (centres unmarked) [compound 973] | 40 | 200 | 
21 | Cc1ccc(F)c2cc(C(=O)NC3CCCC(N4CCN(C5CCOC5)C(=O)C4)C3)[nH]c12 (centres unmarked) [compound 974] | 2600 | > 2000 | 
22 | Cc1nnc(C2CCCC(NC(=O)c3cc4c(F)ccc(C)c4[nH]3)C2)o1 (centres unmarked) [compound 975] | 100 | 400 | 
23 | Cc1nnc(C2CCCC(NC(=O)c3cc4c(F)ccc(C)c4[nH]3)C2)o1 (centres unmarked) [compound 976] | 6600 | > 2000 | 

Now from value to molecule:

Row | IC50 (SETD2(1434-1711)) [nM] | IC50 (H3K36me3 in A549 cells) [nM] | IC50 (H3K36me3 in A549 cells; Homo sapiens) [nM] | SMILES
24 | 20 | 200 |  | Cc1ccc(F)c2cc(C(=O)NC3CCCC(N4CCN(C5CC5)C(=O)C4)C3)[nH]c12 (centres unmarked) [compound 977]
25 | 2300 | > 2000 |  | Cc1ccc(F)c2cc(C(=O)NC3CCCC(N4CCN(C5CC5)C(=O)C4)C3)[nH]c12 (centres unmarked) [compound 978]
26 | 60 | 500 |  | CC(=O)N1CCCN(C2CCCC(NC(=O)c3cc4c(F)ccc(C)c4[nH]3)C2)CC1 (centres unmarked) [compound 979]
27 | 900 |  | > 2000 | CC(=O)N1CCCN([C@@H]2CCC[C@@H](NC(=O)c3cc4c(F)ccc(C)c4[nH]3)C2)CC1 [compound 980]
28 | 30 | 600 |  | Cc1ccc(F)c2cc(C(=O)NC3CCCC(N4CCCN(S(C)(=O)=O)CC4)C3)[nH]c12 (centres unmarked) [compound 981]
29 | 1000 | > 2000 |  | Cc1ccc(F)c2cc(C(=O)NC3CCCC(N4CCCN(S(C)(=O)=O)CC4)C3)[nH]c12 (centres unmarked) [compound 982]
30 | 20 | 100 |  | Cc1ccc(F)c2cc(C(=O)NC3CCCC(N4CCC(N(C)C(=O)CO)C4)C3)[nH]c12 (centres unmarked) [compound 983]
31 | 5300 | > 2000 |  | Cc1ccc(F)c2cc(C(=O)NC3CCCC(N4CCC(N(C)C(=O)CO)C4)C3)[nH]c12 (centres unmarked) [compound 984]
32 | 6600 | > 2000 |  | CC(=O)N1CCN(C2COCC(NC(=O)c3cc4c(F)ccc(C)c4[nH]3)C2)CC1 (centres unmarked) [compound 985]
33 | 60 | 200 |  | CC(=O)N1CCN(C2COCC(NC(=O)c3cc4c(F)ccc(C)c4[nH]3)C2)CC1 (centres unmarked) [compound 986]
34 | > 10000 | > 2000 |  | CC(=O)N1CCN(C2COCC(NC(=O)c3cc4c(F)ccc(C)c4[nH]3)C2)CC1 (centres unmarked) [compound 987]
35 | 4100 | > 2000 |  | CC(=O)N1CCN(C2COCC(NC(=O)c3cc4c(F)ccc(C)c4[nH]3)C2)CC1 (centres unmarked) [compound 988]
36 | 100 | 800 |  | Cc1ccc(F)c2cc(C(=O)NC3CCCC(N4CCn5c(nnc5C(F)(F)F)C4)C3)[nH]c12 (centres unmarked) [compound 989]
37 | 3200 |  | > 2000 | Cc1ccc(F)c2cc(C(=O)N[C@@H]3CCC[C@@H](N4CCn5c(nnc5C(F)(F)F)C4)C3)[nH]c12 [compound 990]
38 | 60 |  | 300 | Cc1ccc(F)c2cc(C(=O)N[C@@H]3CCC[C@H](N4CCn5cncc5C4)C3)[nH]c12 [compound 991]
39 | 1900 |  | > 2000 | Cc1ccc(F)c2cc(C(=O)N[C@@H]3CCC[C@@H](N4CCn5cncc5C4)C3)[nH]c12 [compound 992]
40 | 40 |  | 200 | Cc1ccc(F)c2cc(C(=O)N[C@@H]3CCC[C@H](N4CCn5c(cnc5C(F)(F)F)C4)C3)[nH]c12 [compound 993]
41 | 1800 |  | > 2000 | Cc1ccc(F)c2cc(C(=O)N[C@@H]3CCC[C@@H](N4CCn5c(cnc5C(F)(F)F)C4)C3)[nH]c12 [compound 994]
42 | 8 | 30 |  | Cc1ccc(F)c2cc(C(=O)NC3CCCC(N4CCC(N(C)C(=O)CO)C4)C3)[nH]c12 (centres unmarked) [compound 995]
43 | 800 | > 2000 |  | Cc1ccc(F)c2cc(C(=O)NC3CCCC(N4CCC(N(C)C(=O)CO)C4)C3)[nH]c12 (centres unmarked) [compound 996]
44 | 10 | 80 |  | Cc1ccc(F)c2cc(C(=O)NC3CCCC(N4CCN(C(=O)OC(C)C)CC4)C3)[nH]c12 (centres unmarked) [compound 997]
45 | 1500 | > 2000 |  | Cc1ccc(F)c2cc(C(=O)NC3CCCC(N4CCN(C(=O)OC(C)C)CC4)C3)[nH]c12 (centres unmarked) [compound 998]
46 | 10 |  | 60 | Cc1ccc(F)c2cc(C(=O)N[C@@H]3CCC[C@H](N4CCN(C(=O)OC5CCOCC5)CC4)C3)[nH]c12 [compound 999]

Source: patent US12116358B2, “Substituted indoles and methods of use thereof” (EPIZYME, INC., priority 2018, dated 2024)
